Test results: the NIST ThermoML archive (doi:10.1021/je201297j)
Numbers after ± are expanded uncertainties.

Conditions: Liquid, Vibrating wire viscometry

In the case of COC [dimethyl ether], the viscosity (243.15 K) is reported as 0.2217 ± 0.0062 mPa·s, the viscosity (248.16 K) is reported as 0.2097 ± 0.006 mPa·s and the viscosity (253.15 K, 5000 kPa) is reported as 0.2044 ± 0.0059 mPa·s. It also gave a viscosity (253.15 K, 10000 kPa) of 0.2125 ± 0.006 mPa·s, a viscosity (253.15 K, 15000 kPa) of 0.2199 ± 0.0062 mPa·s and a viscosity (253.15 K, 20000 kPa) of 0.2314 ± 0.0064 mPa·s. It also gave a viscosity (253.15 K, 25000 kPa) of 0.2421 ± 0.0066 mPa·s, a viscosity (253.15 K, 30000 kPa) of 0.2541 ± 0.0068 mPa·s and a viscosity (253.15 K) of 0.1988 ± 0.0058 mPa·s. For the same compound, the viscosity (258.14 K) was 0.1889 ± 0.0057 mPa·s, the viscosity (263.15 K, 5000 kPa) was 0.1836 ± 0.0056 mPa·s and the viscosity (263.15 K, 10000 kPa) was 0.1911 ± 0.0057 mPa·s. It also gave a viscosity (263.15 K, 15000 kPa) of 0.1989 ± 0.0058 mPa·s, a viscosity (263.15 K, 20000 kPa) of 0.2068 ± 0.006 mPa·s and a viscosity (263.15 K, 25000 kPa) of 0.2156 ± 0.0061 mPa·s. It also gave a viscosity (263.15 K, 30000 kPa) of 0.2252 ± 0.0063 mPa·s, a viscosity (263.15 K) of 0.1796 ± 0.0055 mPa·s and a viscosity (268.14 K) of 0.1709 ± 0.0054 mPa·s. For the same compound, the viscosity (273.14 K, 5000 kPa) was 0.1669 ± 0.0053 mPa·s, the viscosity (273.14 K, 10000 kPa) was 0.1742 ± 0.0054 mPa·s and the viscosity (273.14 K, 15000 kPa) was 0.1816 ± 0.0056 mPa·s. The viscosity (273.14 K, 20000 kPa) was 0.189 ± 0.0057 mPa·s, the viscosity (273.14 K, 25000 kPa) was 0.196 ± 0.0058 mPa·s and the viscosity (273.14 K, 30000 kPa) was 0.2035 ± 0.0059 mPa·s. The viscosity (273.14 K) was 0.1628 ± 0.0052 mPa·s, the viscosity (278.13 K) was 0.1552 ± 0.0051 mPa·s and the viscosity (283.14 K, 5000 kPa) was 0.1521 ± 0.0051 mPa·s. The viscosity (283.14 K, 10000 kPa) was 0.159 ± 0.0052 mPa·s, the viscosity (283.14 K, 15000 kPa) was 0.1657 ± 0.0053 mPa·s and the viscosity (283.14 K, 20000 kPa) was 0.1724 ± 0.0054 mPa·s. It also gave a viscosity (283.14 K, 25000 kPa) of 0.1791 ± 0.0055 mPa·s, a viscosity (283.14 K, 30000 kPa) of 0.1857 ± 0.0056 mPa·s and a viscosity (283.14 K) of 0.1479 ± 0.005 mPa·s. It also gave a viscosity (288.14 K) of 0.1414 ± 0.0049 mPa·s, a viscosity (293.14 K, 5000 kPa) of 0.1395 ± 0.0049 mPa·s and a viscosity (293.14 K, 10000 kPa) of 0.1455 ± 0.005 mPa·s. For the same compound, the viscosity (293.14 K, 15000 kPa) was 0.1527 ± 0.0051 mPa·s, the viscosity (293.14 K, 20000 kPa) was 0.1586 ± 0.0052 mPa·s and the viscosity (293.14 K, 25000 kPa) was 0.1652 ± 0.0053 mPa·s. It also gave a viscosity (293.14 K, 30000 kPa) of 0.1709 ± 0.0054 mPa·s, a viscosity (293.14 K) of 0.1351 ± 0.0048 mPa·s and a viscosity (298.14 K) of 0.129 ± 0.0047 mPa·s. It also gave a viscosity (303.14 K, 5000 kPa) of 0.1276 ± 0.0047 mPa·s, a viscosity (303.14 K, 10000 kPa) of 0.134 ± 0.0048 mPa·s and a viscosity (303.14 K, 15000 kPa) of 0.1401 ± 0.0049 mPa·s. For the same compound, the viscosity (303.14 K, 20000 kPa) was 0.1464 ± 0.005 mPa·s, the viscosity (303.14 K, 25000 kPa) was 0.1521 ± 0.0051 mPa·s and the viscosity (303.14 K, 30000 kPa) was 0.1584 ± 0.0052 mPa·s. It also gave a viscosity (303.14 K) of 0.124 ± 0.0047 mPa·s, a viscosity (308.14 K) of 0.1181 ± 0.0046 mPa·s and a viscosity (313.14 K, 5000 kPa) of 0.1165 ± 0.0046 mPa·s. For the same compound, the viscosity (313.14 K, 10000 kPa) was 0.1235 ± 0.0047 mPa·s, the viscosity (313.14 K, 15000 kPa) was 0.1294 ± 0.0048 mPa·s and the viscosity (313.14 K, 20000 kPa) was 0.1355 ± 0.0049 mPa·s. The viscosity (313.14 K, 25000 kPa) was 0.1415 ± 0.0049 mPa·s, the viscosity (313.14 K, 30000 kPa) was 0.1473 ± 0.005 mPa·s and the viscosity (313.14 K) was 0.1129 ± 0.0045 mPa·s. The viscosity (318.12 K) was 0.108 ± 0.0045 mPa·s, the viscosity (323.12 K, 5000 kPa) was 0.107 ± 0.0045 mPa·s and the viscosity (323.12 K, 10000 kPa) was 0.1139 ± 0.0046 mPa·s. The viscosity (323.12 K, 15000 kPa) was 0.1199 ± 0.0046 mPa·s, the viscosity (323.12 K, 20000 kPa) was 0.1262 ± 0.0047 mPa·s and the viscosity (323.12 K, 25000 kPa) was 0.1316 ± 0.0048 mPa·s. It also gave a viscosity (323.12 K, 30000 kPa) of 0.137 ± 0.0049 mPa·s, a viscosity (323.12 K) of 0.1031 ± 0.0044 mPa·s and a viscosity (328.12 K) of 0.09861 ± 0.0044 mPa·s. It also gave a viscosity (333.12 K, 5000 kPa) of 0.09797 ± 0.0044 mPa·s, a viscosity (333.12 K, 10000 kPa) of 0.1049 ± 0.0044 mPa·s and a viscosity (333.12 K, 15000 kPa) of 0.1111 ± 0.0045 mPa·s. It also gave a viscosity (333.12 K, 20000 kPa) of 0.117 ± 0.0046 mPa·s, a viscosity (333.12 K, 25000 kPa) of 0.1231 ± 0.0047 mPa·s and a viscosity (333.12 K, 30000 kPa) of 0.1284 ± 0.0047 mPa·s. It also gave a viscosity (333.13 K) of 0.09419 ± 0.0043 mPa·s, a viscosity (338.13 K) of 0.08983 ± 0.0043 mPa·s and a viscosity (343.13 K, 5000 kPa) of 0.08951 ± 0.0043 mPa·s. The viscosity (343.13 K, 10000 kPa) was 0.09664 ± 0.0043 mPa·s, the viscosity (343.13 K, 15000 kPa) was 0.1036 ± 0.0044 mPa·s and the viscosity (343.13 K, 20000 kPa) was 0.1096 ± 0.0045 mPa·s. It also gave a viscosity (343.13 K, 25000 kPa) of 0.1151 ± 0.0046 mPa·s, a viscosity (343.13 K, 30000 kPa) of 0.1204 ± 0.0046 mPa·s and a viscosity (343.13 K) of 0.08575 ± 0.0042 mPa·s. The viscosity (348.13 K) was 0.08166 ± 0.0042 mPa·s, the viscosity (353.12 K, 5000 kPa) was 0.08119 ± 0.0042 mPa·s and the viscosity (353.12 K, 10000 kPa) was 0.08899 ± 0.0043 mPa·s. The viscosity (353.12 K, 15000 kPa) was 0.0959 ± 0.0043 mPa·s, the viscosity (353.12 K, 20000 kPa) was 0.1017 ± 0.0044 mPa·s and the viscosity (353.12 K, 25000 kPa) was 0.1075 ± 0.0045 mPa·s. The viscosity (353.12 K, 30000 kPa) was 0.1127 ± 0.0045 mPa·s, the viscosity (353.12 K) was 0.07777 ± 0.0042 mPa·s and the viscosity (358.13 K) was 0.07388 ± 0.0042 mPa·s. The viscosity (363.13 K, 10000 kPa) was 0.08181 ± 0.0042 mPa·s, the viscosity (363.13 K, 15000 kPa) was 0.08877 ± 0.0043 mPa·s and the viscosity (363.13 K, 20000 kPa) was 0.09499 ± 0.0043 mPa·s. The viscosity (363.13 K, 25000 kPa) was 0.101 ± 0.0044 mPa·s, the viscosity (363.13 K, 30000 kPa) was 0.1066 ± 0.0045 mPa·s and the viscosity (363.13 K) was 0.07014 ± 0.0041 mPa·s. It also gave a viscosity (368.13 K) of 0.06636 ± 0.0041 mPa·s, a viscosity (373.13 K, 5000 kPa) of 0.06522 ± 0.0042 mPa·s and a viscosity (373.13 K, 10000 kPa) of 0.07506 ± 0.0042 mPa·s. For the same compound, the viscosity (373.13 K, 15000 kPa) was 0.08237 ± 0.0042 mPa·s, the viscosity (373.13 K, 20000 kPa) was 0.08883 ± 0.0043 mPa·s and the viscosity (373.13 K, 25000 kPa) was 0.09475 ± 0.0043 mPa·s. It also gave a viscosity (373.13 K, 30000 kPa) of 0.09991 ± 0.0044 mPa·s and a viscosity (373.13 K) of 0.06256 ± 0.0041 mPa·s.
